Measured values reported in patent US11779597B2, “Method of treating Parkinson's and other neurodegenerative diseases” (Vector Vitale IP LLC, priority 2019, dated 2023).
“Also recorded” adds a separate entry of the source. Marks after values point to notes of the source that are not given here.

Assays:
[1] = tested on: human T-lymphocytes (CD3+); test: Spontaneous and PHA-induced proliferative activity and activation-induced apoptosis of T-lymphocytes; type: cell-based; parameters: activation-induced T-cell apoptosis: dose or concentration left out as unconfirmed
Method: Materials and Methods: Peripheral blood mononuclear cells were isolated from a healthy donor by density gradient centrifugation over Histopaque-1077 (Sigma, USA). Phytohemagglutinin (PHA) (Sigma, USA) was used to activate the proliferative activity of T-lymphocytes. The cells were exposed to the action of both preparations for 48 hours. A stimulatory (with the addition of the drugs as single components) and costimulatory (with the addition of the drugs in combination with PHA) effects were assessed. CD3 phenotypic marker was used to selectively measure proliferative activity of T-lymphocytes. The T-cell proliferative activity was assessed by analyzing the DNA status of CD3+ cells using a flow cytometry technique. The results are presented in the form of a proliferative index, calculated by the following formula: […]

[2] = tested on: neuronal nitric oxide synthase; test: Neuronal nitric oxide synthase expression in astrocytes in LPS rat models; type: in vivo; conditions: sham operation and LPS-induced PD; 1.5 mg/kg
Method: On the 1st day of the experiment, rats were either operated to model hemi-parkinsonism or sham operated. From the 9th to the 18th day of the experiment, the animals were injected either deuterium-depleted water or the test substance, according to their allocation into groups, for 10 days. On the 8th day of the experiment (before initiation of treatment—apomorphine test I) and on the 21st day of the experiment (after the end of administering the test substance —apomorphine test II) the animals underwent an apomorphine test to analyze the development of hemi-parkinsonism which correlates with the number of destroyed dopaminergic neurons. In addition, a follow-up analysis of fecal water content was carried out, i.e., before the start of treatment on the 8th day after the operation, as well as on the 21st (after the end of treatment) and the 28th day (before autopsy). On the 24th day of the experiment, behavioral tests were carried out in all groups. All animals were weighed before autopsy. […]

[3] = tested on: LPS rat models of parkinsonism; test: Apomorphine test in LPS rat models of parkinsonism; type: in vivo
Method: Chronic dopamine deficiency of the left hemisphere was modeled by unilateral destruction of dopaminergic neurons in the Substantia nigra pars compacta portion of the brain. It was induced by stereotactic microinjections of 10 μg endotoxin (lipopolysaccharide) (Lipopolysaccharides from Escherichia coli O111:B4, cat. L2630 Sigma) dissolved in 2 μl sterile 0.9% NaCl (Infuzia CJSC, Ukraine). The solution was prepared on the day of a surgical procedure. A flask containing the resulting solution was sealed with a drop of silicone oil (STEP-E[…], Ukraine) and placed in a refrigerator.
An animal, anesthetized using a mixture of ketamine (75 mg/kg, diluted in sterile water for injection, Sigma, USA) and 2% xylazine ([…], Alfasan International B.V., Netherlands) administered intraperitoneally in a total volume of 1 ml, was placed in a stereotaxic apparatus (SEZH-4) modified for rats. The animal was then scalped and a trephine opening was made with an injection needle, directly into the substantia nigra (AP=−5.3; ML=±2.0; DV=−7.2). Dissolved LPS was collected into a home-made microinjector and its tip was dropped into the trephine opening.
Endotoxin at a dose of 10 μg in a volume of 2 μl was injected in the brain tissue at a rate of […] (every 15 seconds). After endotoxin was administered, the tip of the microinjector remained in the brain tissue for 5 minutes. The microinjector was then removed and stitches were put on the scalp soft tissues of the animal. Control animals were administered 2 μl sterile 0.9% NaCl, instead of LPS (sham operated animals).
The percentage of destroyed dopaminergic neurons was calculated using an apomorphine test. The intensity of rotational motions of an animal to the contralateral side of the hemisphere into which endotoxin was injected was assessed. A similar motor activity was induced by systemic intraperitoneal administration of apomorphine, a dopamine receptor agonist (0.5 mg/kg, Sigma, USA). The intensity of such rotational motions for 30 minutes indicated the degree of degradation of the nigrostriatal dopamine system (SA Talanov et al., Neurophysiology 38 (2), 128-133). The number of animals in which the number of rotations increased, decreased or remained unchanged within 30 minutes between apomorphine test I and II was quantified.
On the 1st day of the experiment, rats were either operated to model hemi-parkinsonism or sham operated. From the 9th to the 18th day of the experiment, the animals were injected either deuterium-depleted water or the test substance, according to their allocation into groups, for 10 days. […]

[4] = Body weight in LPS rat models of parkinsonism; type: in vivo; conditions: for body weight: in g (unit assumed)
Method: On the 1st day of the experiment, rats were either operated to model hemi-parkinsonism or sham operated. From the 9th to the 18th day of the experiment, the animals were injected either deuterium-depleted water or the test substance, according to their allocation into groups, for 10 days. On the 8th day of the experiment (before initiation of treatment—apomorphine test I) and on the 21st day of the experiment (after the end of administering the test substance —apomorphine test II) the animals underwent an apomorphine test to analyze the development of hemi-parkinsonism which correlates with the number of destroyed dopaminergic neurons. In addition, a follow-up analysis of fecal water content was carried out, i.e., before the start of treatment on the 8th day after the operation, as well as on the 21st (after the end of treatment) and the 28th day (before autopsy). On the 24th day of the experiment, behavioral tests were carried out in all groups. All animals were weighed before autopsy. During autopsy, ⅔ of animals from each group were sacrificed by cervical dislocation and brain and blood samples were collected for further biochemical and immunological tests. ⅓ of the animals were used for further immunohistochemical studies of the brain; for this purpose, under anesthesia, a procedure of fast, controlled and uniform fixation of the whole body of the animal was performed using 4% paraformaldehyde perfused through the heart of the rat to obtain the best preservation of the brain architecture for immunohistochemistry. Gage G J, et al., J Vis Exp. 2012 Jul. 30; (65).

Substance: ^64Zn-enriched zinc aspartate [^64Zne-asp]
- activation-induced T-cell apoptosis ([1]; drug used alone): did not have any effect
- PHA (mitogen)-induced proliferative activity of T-lymphocytes ([1]; in combination with PHA, 48 hours): stimulatory and costimulatory effects
- activation-induced T-cell apoptosis ([1]; in combination with the mitogen): significantly decreased
- spontaneous proliferative activity of CD3+ T-lymphocytes ([1]; used separately from PHA, 48 hours): dose-dependent weak stimulatory effect
- expression of nitric oxide synthase enzyme in astrocytes [2]: increase
- rats with increased number of rotations between the 1st and 2nd apomorphine tests ([3]; 1.5 mg/kg i.v. for 10 days, 2 out of 14 animals): 14.3%
- rats with a fewer number of rotations between the 1st and 2nd apomorphine tests ([3]; 1.5 mg/kg i.v. for 10 days, 12 out of 14 animals): 85.7%
- difference in the mean number of rotations between the 1st and 2nd apomorphine tests ([3]; LPS rats, 1.5 mg/kg i.v. for 10 days, listed as 64Zn-asp, 1.5 mg/kg): no significant difference; also recorded: did not cause a significant change
- mean number of rotations, 1st apomorphine test ([3]; LPS rats, day 8, before start of treatment): 91.2±107.7 rot./30 min
- body weight ([4]; 1st day): 193.78 ± 22.21
- body weight ([4]; 28th day): 219.8 ± 18.31
- body weight changes, % ([4]; between 1st and 28th day): 13* %
- body weight of LPS rat models (in words) ([4]; day 28 versus day 1 and versus LPS + deuterium-depleted water, listed as 64Zn-asp): statistically significant increase
